Assay results reported in patent US20240000872A1, “NOVEL BACTERIOPHAGE THAT LYSES ACINETOBACTER GENUS BACTERIA HAVING RESISTANCE TO ANTIBIOTICS” (priority 2020, published 2024).

Test system: Acinetobacter baumannii strains
Assay: Antibiotic susceptibility test (CLSI disk diffusion test method, read per CLSI 2016)
Type: cell-based
Description: (§1) Strain identification was performed using a kit such as AT 32 GN system (bioMérieux, Marcy l'Etoile, France). […] In Table 2 below, S, I, and R are the results obtained by evaluating susceptibility to the antibacterial agents, in which ‘S’ means susceptible, ‘I’ means intermediate, and ‘R’ means resistant.
as §1, with “as ATB” for “as AT”, “system (bioMédrieux,” for “system (bioMérieux,”, “Table 6” for “Table 2”
as §1, with “as ATB” for “as AT”, “Table 10” for “Table 2”, “susceptible, T” for “susceptible, ‘I’”

SMILES: CO/N=C(\C(=O)N[C@@H]1C(=O)N2C(C(=O)O)=C(COC(C)=O)CS[C@H]12)c1csc(N)n1 [Cefotaxime, cefotaxime]
- antibiotic susceptibility class (host strain YMC14/01/C29): R
- antibiotic susceptibility class (host strain YMC14/01/IP122): R
- antibiotic susceptibility class (host strain YMC14/01/L8): R
- antibiotic susceptibility class (host strain YMC14/01/P31): R
- antibiotic susceptibility class (host strain YMC14/01/P117): R
- antibiotic susceptibility class (host strain YMC14/01/P224): R
- antibiotic susceptibility class (host strain YMC14/01/P727): R
- antibiotic susceptibility class (host strain YMC14/01/P728): R
- antibiotic susceptibility class (host strain YMC14/01/R130): R
- antibiotic susceptibility class (host strain YMC14/01/R160): R
- antibiotic susceptibility class (host strain YMC14/01/R198): R
- antibiotic susceptibility class (host strain YMC14/01/R257): R
- antibiotic susceptibility class (host strain YMC14/01/R270): R
- antibiotic susceptibility class (host strain YMC14/01/R324): R
- antibiotic susceptibility class (host strain YMC14/01/R443): R
- antibiotic susceptibility class (host strain YMC14/01/R451): R
- antibiotic susceptibility class (host strain YMC14/01/R560): R
- antibiotic susceptibility class (host strain YMC14/01/R617): R
- antibiotic susceptibility class (host strain YMC14/01/R671): R
- antibiotic susceptibility class (host strain YMC14/01/R732): R
- antibiotic susceptibility class (host strain YMC14/01/R767): R
- antibiotic susceptibility class (host strain YMC14/01/R904): R
- antibiotic susceptibility class (host strain YMC14/01/R905): R
- antibiotic susceptibility class (host strain YMC14/01/R921): R
- antibiotic susceptibility class (host strain YMC14/01/R941): R
- antibiotic susceptibility class (host strain YMC14/01/R958): R
- antibiotic susceptibility class (host strain YMC14/01/R1006): R
- antibiotic susceptibility class (host strain YMC14/01/R1199): R
- antibiotic susceptibility class (host strain YMC14/01/R1659): R
- antibiotic susceptibility class (host strain YMC14/01/R1722): R
- antibiotic susceptibility class (host strain YMC14/01/R1752): R
- antibiotic susceptibility class (host strain YMC14/01/R2429): R
- antibiotic susceptibility class (host strain YMC14/01/R2572): R
- antibiotic susceptibility class (host strain YMC14/01/R2855): R
- antibiotic susceptibility class (host strain YMC14/01/R2945): R
- antibiotic susceptibility class (host strain YMC14/01/R3007): R
- antibiotic susceptibility class (host strain YMC14/01/R3129): R
- antibiotic susceptibility class (host strain YMC14/01/R3317): R
- antibiotic susceptibility class (host strain YMC14/01/R3474): R
- antibiotic susceptibility class (host strain YMC14/01/R3574): R
- antibiotic susceptibility class (host strain YMC14/01/U313): R
- antibiotic susceptibility class (host strain YMC14/01/U318): R
- antibiotic susceptibility class (host strain YMC14/02/L18): R
- antibiotic susceptibility class (host strain YMC14/02/P47): R
- antibiotic susceptibility class (host strain YMC14/02/R1860): R
- antibiotic susceptibility class (host strain YMC14/02/R2417): R
- antibiotic susceptibility class (host strain YMC14/02/R2599): R
- antibiotic susceptibility class (host strain YMC14/02/R2668): R
- antibiotic susceptibility class (host strain YMC14/02/R2758): R
- antibiotic susceptibility class (host strain YMC14/02/R2781): R
- antibiotic susceptibility class (host strain YMC14/02/R3106): R
- antibiotic susceptibility class (host strain YMC14/02/R3419): R
- antibiotic susceptibility class (host strain YMC14/02/U1607): R
- antibiotic susceptibility class (host strain YMC14/03/L9): R
- antibiotic susceptibility class (host strain YMC14/03/P471): R
- antibiotic susceptibility class (host strain YMC14/03/R122): R
- antibiotic susceptibility class (host strain YMC14/03/R217): R
- antibiotic susceptibility class (host strain YMC14/03/R380): R
- antibiotic susceptibility class (host strain YMC14/03/R618): R
- antibiotic susceptibility class (host strain YMC14/03/R2144): R
- antibiotic susceptibility class (host strain YMC14/03/U4616): R
- antibiotic susceptibility class (host strain YMC14/04/R1078): R
- antibiotic susceptibility class (host strain YMC14/04/R1080): R
- antibiotic susceptibility S/I/R (host strain YMC14/06/R2359): R
- susceptibility category (S/I/R) (host strain YMC14/06/R2359): R
- antibiotic susceptibility S/I/R (host strain YMC14/08/R1169): R
- susceptibility category (S/I/R) (host strain YMC14/08/R1169): R
- antibiotic susceptibility S/I/R (host strain YMC14/08/T90): R
- susceptibility category (S/I/R) (host strain YMC14/08/T90): R
- antibiotic susceptibility S/I/R (host strain YMC15/02/R436): R
- susceptibility category (S/I/R) (host strain YMC15/02/R436): R
- antibiotic susceptibility S/I/R (host strain YMC15/02/T28): R
- susceptibility category (S/I/R) (host strain YMC15/02/T28): R
- antibiotic susceptibility S/I/R (host strain YMC15/03/R1604): R
- susceptibility category (S/I/R) (host strain YMC15/03/R1604): R
- antibiotic susceptibility S/I/R (host strain YMC15/09/R1869): R
- susceptibility category (S/I/R) (host strain YMC15/09/R1869): R
- antibiotic susceptibility S/I/R (host strain YMC16/01/P11): R
- susceptibility category (S/I/R) (host strain YMC16/01/P11): R
- antibiotic susceptibility S/I/R (host strain YMC16/01/R123): R
- susceptibility category (S/I/R) (host strain YMC16/01/R123): R
- antibiotic susceptibility S/I/R (host strain YMC16/01/R198): R
- susceptibility category (S/I/R) (host strain YMC16/01/R198): R
- antibiotic susceptibility S/I/R (host strain YMC16/01/R353): R
- susceptibility category (S/I/R) (host strain YMC16/01/R353): R
- antibiotic susceptibility S/I/R (host strain YMC16/01/R380): R
- susceptibility category (S/I/R) (host strain YMC16/01/R380): R
- antibiotic susceptibility S/I/R (host strain YMC16/01/R397): R
- susceptibility category (S/I/R) (host strain YMC16/01/R397): R
- antibiotic susceptibility S/I/R (host strain YMC16/01/R405): R
- susceptibility category (S/I/R) (host strain YMC16/01/R405): R
- susceptibility category (S/I/R) (host strain YMC16/03/R4461): I
- antibiotic susceptibility S/I/R (host strain YMC16/05/R2210): R
- susceptibility category (S/I/R) (host strain YMC16/05/R2210): R
- antibiotic susceptibility S/I/R (host strain YMC16/07/R2512): R
- susceptibility category (S/I/R) (host strain YMC16/07/R2512): R
- antibiotic susceptibility S/I/R (host strain YMC16/09/R2471): R
- susceptibility category (S/I/R) (host strain YMC16/09/R2471): R
- antibiotic susceptibility S/I/R (host strain YMC16/10/R2537): R
- susceptibility category (S/I/R) (host strain YMC16/10/R2537): R
- antibiotic susceptibility S/I/R (host strain YMC16/12/B11422): R
- susceptibility category (S/I/R) (host strain YMC16/12/B11422): R
- antibiotic susceptibility S/I/R (host strain YMC16/12/B11449): R
- susceptibility category (S/I/R) (host strain YMC16/12/B11449): R
- antibiotic susceptibility S/I/R (host strain YMC16/12/B13325): R
- susceptibility category (S/I/R) (host strain YMC16/12/B13325): R
- antibiotic susceptibility S/I/R (host strain YMC16/12/P503): R
- susceptibility category (S/I/R) (host strain YMC16/12/P503): R
- antibiotic susceptibility S/I/R (host strain YMC16/12/R4637): R
- susceptibility category (S/I/R) (host strain YMC16/12/R4637): R
- antibiotic susceptibility S/I/R (host strain YMC17/01/B8053): R
- susceptibility category (S/I/R) (host strain YMC17/01/B8053): R
- antibiotic susceptibility S/I/R (host strain YMC17/01/B10087): R
- susceptibility category (S/I/R) (host strain YMC17/01/B10087): R
- antibiotic susceptibility S/I/R (host strain YMC17/01/B12075): R
- susceptibility category (S/I/R) (host strain YMC17/01/B12075): R
- antibiotic susceptibility S/I/R (host strain YMC17/01/B13454): R
- susceptibility category (S/I/R) (host strain YMC17/01/B13454): R
- antibiotic susceptibility S/I/R (host strain YMC17/01/P518): R
- susceptibility category (S/I/R) (host strain YMC17/01/P518): R
- antibiotic susceptibility S/I/R (host strain YMC17/01/R2812): R
- susceptibility category (S/I/R) (host strain YMC17/01/R2812): R
- antibiotic susceptibility S/I/R (host strain YMC17/02/B14): R
- susceptibility category (S/I/R) (host strain YMC17/02/B14): R
- antibiotic susceptibility S/I/R (host strain YMC17/02/B87): R
- susceptibility category (S/I/R) (host strain YMC17/02/B87): R
- antibiotic susceptibility S/I/R (host strain YMC17/02/B721): R
- susceptibility category (S/I/R) (host strain YMC17/02/B721): R
- antibiotic susceptibility S/I/R (host strain YMC17/02/B4039): R
- susceptibility category (S/I/R) (host strain YMC17/02/B4039): R
- antibiotic susceptibility S/I/R (host strain YMC17/02/B4520): R
- susceptibility category (S/I/R) (host strain YMC17/02/B4520): R
- antibiotic susceptibility S/I/R (host strain YMC17/02/B4864): S
- susceptibility category (S/I/R) (host strain YMC17/02/B4864): S
- antibiotic susceptibility S/I/R (host strain YMC17/02/B8414): R
- susceptibility category (S/I/R) (host strain YMC17/02/B8414): R
- antibiotic susceptibility S/I/R (host strain YMC17/02/P523): R
- susceptibility category (S/I/R) (host strain YMC17/02/P523): R
- antibiotic susceptibility S/I/R (host strain YMC17/02/R541): R
- susceptibility category (S/I/R) (host strain YMC17/02/R541): R
- antibiotic susceptibility S/I/R (host strain YMC17/02/R2392): R
- susceptibility category (S/I/R) (host strain YMC17/02/R2392): R
- antibiotic susceptibility S/I/R (host strain YMC17/03/B4730): R
- susceptibility category (S/I/R) (host strain YMC17/03/B4730): R
- antibiotic susceptibility S/I/R (host strain YMC17/03/B5000): R
- susceptibility category (S/I/R) (host strain YMC17/03/B5000): R
- antibiotic susceptibility S/I/R (host strain YMC17/03/P971): R
- susceptibility category (S/I/R) (host strain YMC17/03/P971): R
- antibiotic susceptibility S/I/R (host strain YMC17/03/R348): R
- susceptibility category (S/I/R) (host strain YMC17/03/R348): R
- antibiotic susceptibility S/I/R (host strain YMC17/03/R585): R
- susceptibility category (S/I/R) (host strain YMC17/03/R585): R
- antibiotic susceptibility S/I/R (host strain YMC17/03/R1888): R
- susceptibility category (S/I/R) (host strain YMC17/03/R1888): R
- antibiotic susceptibility S/I/R (host strain YMC17/03/R3279): R
- susceptibility category (S/I/R) (host strain YMC17/03/R3279): R
- antibiotic susceptibility S/I/R (host strain YMC17/03/R4077): R
- susceptibility category (S/I/R) (host strain YMC17/03/R4077): R
- antibiotic susceptibility S/I/R (host strain YMC17/03/R4607): R
- susceptibility category (S/I/R) (host strain YMC17/03/R4607): R
- antibiotic susceptibility S/I/R (host strain YMC17/04/R488): R
- susceptibility category (S/I/R) (host strain YMC17/04/R488): R
- antibiotic susceptibility S/I/R (host strain YMC17/04/R640): R
- susceptibility category (S/I/R) (host strain YMC17/04/R640): R
- antibiotic susceptibility S/I/R (host strain YMC/17/05/R1095): R
- susceptibility category (S/I/R) (host strain YMC/17/05/R1095): R
